The values that follow come from patent US7563781B2, “Triazolopyrimidine derivatives” (Janssen Pharmaceutica NV, priority 2006, dated 2009).

Assay [1] addresses T1, CAK complex (human Cdk7, human Cyclin H, MAT-1) (Homo sapiens, UniProt P50613).
T1 construct: made in house; host or cells: SF-900 insect cells co-infected with Flag-Cdk7 and Bab-Cyclin H baculoviruses
As to the kind of experiment: in vitro time-resolved-fluorescence assay for the CAK kinase activity. The assay is classed as biochemical. The note with it: compound 20 uM; read-out: CAK % inhib; 20 uM. An outline of the steps:
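Kinase activity of the human CAK complex (Flag-tagged Cdk7, Cyclin H, MAT-1), purified from co-infected SF-900 insect cells by Flag-M2 immunoaffinity, was measured by time-resolved fluorescence. In black glutathione-coated 96-well plates, 500 ng GST-CTD substrate with 22 uM ATP was mixed with compound in 30% DMSO/25 mM Hepes and 250 ng CAK. Plates were incubated 20 minutes at 30° C, then stopped with EDTA, bound overnight and washed. A Europium-labeled antibody detected serine-phosphorylated CTD.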

Assay [2] deals with T2, Focal Adhesion Kinase (full-length Flag-tagged human FAK) (Homo sapiens, UniProt Q05397).
T2 construct: a purified recombinant full-length Flag-tagged human FAK protein; Flag; made in house; host or cells: baculovirus infected insect cells
As to the kind of experiment: in vitro FAK ELISA kinase assay. The assay is classed as biochemical. The note with it: compound 10 uM; ATP 2 uM; read-out: FAK % Inhib ave: 10 uM. Summed up:
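Plate-coated GST fusion of the 73-residue region around Tyr397 phosphorylated by full-length Flag-tagged human FAK from baculovirus-infected insect cells, with 2 μM ATP in Mg/Mn HEPES pH 7.5, 1 h at 30 °C. Phosphotyrosine detected by HRP-anti-pTyr ELISA with TMB read-out. Compounds screened at 10 μM or titrated from 50 μM in half-log steps for IC50, BSA-substrate background subtracted.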
On the technique in general: ELISA stands for enzyme-linked immunosorbent assay.

T2 sequence (Q05397 whole entry): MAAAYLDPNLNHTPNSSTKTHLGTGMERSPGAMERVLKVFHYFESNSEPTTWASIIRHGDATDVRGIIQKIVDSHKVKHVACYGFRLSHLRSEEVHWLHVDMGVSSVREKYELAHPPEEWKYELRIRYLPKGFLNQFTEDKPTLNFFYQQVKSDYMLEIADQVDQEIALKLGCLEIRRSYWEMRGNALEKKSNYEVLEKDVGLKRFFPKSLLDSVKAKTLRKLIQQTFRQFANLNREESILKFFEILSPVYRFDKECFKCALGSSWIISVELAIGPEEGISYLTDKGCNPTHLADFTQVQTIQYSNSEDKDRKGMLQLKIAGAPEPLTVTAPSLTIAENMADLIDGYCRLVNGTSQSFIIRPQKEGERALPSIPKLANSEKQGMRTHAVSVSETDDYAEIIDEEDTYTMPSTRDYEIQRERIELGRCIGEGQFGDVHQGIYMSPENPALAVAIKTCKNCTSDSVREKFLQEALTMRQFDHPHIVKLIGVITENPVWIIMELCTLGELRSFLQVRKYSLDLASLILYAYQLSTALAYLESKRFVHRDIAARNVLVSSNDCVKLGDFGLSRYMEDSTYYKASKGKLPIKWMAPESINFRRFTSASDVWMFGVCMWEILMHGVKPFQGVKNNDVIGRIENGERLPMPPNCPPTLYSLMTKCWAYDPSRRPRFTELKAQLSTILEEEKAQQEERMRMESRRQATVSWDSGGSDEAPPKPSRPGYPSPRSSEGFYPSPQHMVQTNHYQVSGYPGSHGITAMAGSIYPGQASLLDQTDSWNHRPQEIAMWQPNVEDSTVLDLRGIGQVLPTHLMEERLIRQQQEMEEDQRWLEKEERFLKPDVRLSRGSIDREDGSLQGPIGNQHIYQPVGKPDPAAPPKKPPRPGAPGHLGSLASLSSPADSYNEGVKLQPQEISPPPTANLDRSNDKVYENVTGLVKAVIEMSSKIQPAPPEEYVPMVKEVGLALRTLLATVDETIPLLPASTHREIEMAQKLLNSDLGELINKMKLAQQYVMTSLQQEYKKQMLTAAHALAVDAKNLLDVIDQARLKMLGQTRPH
T1 sequence (P50613 with tags, fused parts or gaps): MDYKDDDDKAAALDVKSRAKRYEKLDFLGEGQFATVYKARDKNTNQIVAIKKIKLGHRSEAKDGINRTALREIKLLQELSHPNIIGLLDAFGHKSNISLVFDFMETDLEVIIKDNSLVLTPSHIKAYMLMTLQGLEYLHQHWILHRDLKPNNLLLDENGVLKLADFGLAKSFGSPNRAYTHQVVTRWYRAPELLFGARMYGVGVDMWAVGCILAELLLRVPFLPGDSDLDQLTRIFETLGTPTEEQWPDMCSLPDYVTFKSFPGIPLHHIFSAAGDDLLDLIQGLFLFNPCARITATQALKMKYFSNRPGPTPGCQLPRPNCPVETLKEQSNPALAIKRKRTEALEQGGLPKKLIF
T1 sequence (as listed by the source partner): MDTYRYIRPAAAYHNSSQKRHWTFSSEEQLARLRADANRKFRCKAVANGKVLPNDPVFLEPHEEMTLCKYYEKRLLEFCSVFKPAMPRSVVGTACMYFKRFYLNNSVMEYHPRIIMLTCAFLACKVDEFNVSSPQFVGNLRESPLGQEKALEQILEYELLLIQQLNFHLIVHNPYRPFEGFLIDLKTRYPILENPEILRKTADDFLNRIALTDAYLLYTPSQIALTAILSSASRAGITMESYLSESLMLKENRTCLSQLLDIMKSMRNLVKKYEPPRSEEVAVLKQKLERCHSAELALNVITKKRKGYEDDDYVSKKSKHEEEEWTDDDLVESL

Regarding `c1cc(OCCCN2CCCC2)ccc1Nc1ncc2nnn(-c3ccc4c(c3)CCC4)c2n1` [Compound 92, (3-Indan-5-yl-3H-[1,2,3]triazolo[4,5-d]pyrimidin-5-yl)-[4-(3-pyrrolidin-1-yl-propoxy)-phenyl]-amine], the inhibition at 20 µM in assay [1] worked out at 103%. Also, the inhibition at 10 µM in assay [2] was determined as 91.2%.
As to `CN(CCCOc1ccc(Nc2ncc3nnn(-c4ccc5c(c4)CCC5)c3n2)cc1)CC(=O)O` [Compound 89, ({3-[4-(3-Indan-5-yl-3H-[1,2,3]triazolo[4,5-d]pyrimidin-5-ylamino)-phenoxy]-propyl]-methyl-amino)-acetic acid], the inhibition at 20 µM in assay [1] was 97.6%. The inhibition at 10 µM in assay [2] amounted to 73.4%.
The corresponding values for `CCN(CC)CCNC(=O)c1ccc(Nc2ncc3nnn(-c4cc[nH]n4)c3n2)cc1` [Compound 66] are 68.1% and 87.2%.
Take `CCN(CC)CCNC(=O)c1ccc(Nc2ncc3nnn(C4CCCC4)c3n2)cc1` [Compound 68, 4-(3-Cyclopentyl-3H-[1,2,3]triazolo[4,5-d]pyrimidin-5-ylamino)-N-(2-diethylamino-ethyl)-benzamide]: in assay [1], the inhibition at 20 µM is 63.8%. The inhibition at 10 µM in assay [2] turned out to be 56.5%.
